≈ marks a conversion by molar mass, not a printed value. Like-named read-outs stand apart in the source and are kept apart here.
Legend:
E. cichoracearum = assay: Field efficiency test, cucumber powdery mildew; type: in vivo; conditions: 0.50 mg/mL (active ingredients)
Experimental: The formulation of emulsifiable concentrate is the same as that in Embodiment 3.
10% of 3-(3',4'-methylenedioxy phenyl)-N-n-propyl acrylamide EC and 14% of 3-(3',4'-methylenedioxy phenyl)-piperidine acrylate EC were diluted at a concentration of 0.50 mg/mL (2000 fold liquid of active ingredients); the control agent, 10% of dimethomorph EW, was also diluted at a concentration of 0.50 mg/mL (2000 fold liquid of active ingredients); the control agent, 80% of mancozeb WP, was diluted at a concentration into a 500 fold liquid according to the usage amount of the formulation; the control agents, 12.5% of myclobutanil EC, 25% of propiconazole EC, 430 g/L of tebuconazole SC, 10% of hexaconazole EC and 37% of difenoconazole EC were all diluted at a concentration into 1500 fold liquids according to the usage amount of the formulation; additionally clear water was used as the control. The first application was started on June 15th, and E. cichoracearum was inoculated on June 17th (the sick leaves were harvested from the solar greenhouse near the military airfield at Xiaguanying town, Yuzhong County, moisturized in the greenhouse for 2 days, then shreded, and filtered over a gauze, the filtrate was sprayed onto both sides of the cucumber leaves with the cone nozzle of an electric sprayer for inoculation). […]

Sclerotinia sclerotiorum = assay: Toxicity determination (EC50) on mycelial growth, growth rate method; type: cell-based
Experimental: (§1) The inhibition of samples for testing on the mycelial growth of plant pathogenic fungi for testing is determined with a growth rate method. 3-(3',4'-methylenedioxy phenyl)-N-n-propyl acrylamide, 3-(3',4'-methylenedioxy phenyl)-piperidine acrylate and five control agents are dissolved with dimethyl sulfoxide (DMSO), then formulated at 5-7 concentrations of different gradients for test following the trial test results, with the same concentration of DMSO as the control solvent, each treatment in triplicate. Fungal cakes with a diameter of 4 mm are taken from the edge of the colony, inoculated into the center of a PDA plate containing different agents of different concentrations and the DMSO control, with one piece of fungal cake inoculated in each plate (with a diameter of […]), and incubated in a constant temperature incubator at a temperature of 22±1.5°C. 7 days later (10-20 days may be needed for some pathogenic fungi), the diameter of the colony is measured with a cross over method according to the mycelial growth profile of the control pathogenic fungi, then the inhibition rate of mycelial growth is calculated.
(§2) 3-(3',4'-methylenedioxy phenyl)-piperidine acrylate, the control agents 96.5% of chlorothalonil technical and 97.0% of procymidone technical. Agents for testing and the control agents chlorothalonil and procymidone are treated at 5-8 concentrations of different gradients on the basis of preliminary tests to ensure that the inhibition rates for treatments at all the concentrations are between 10% and 90%.
(§3) For specific determination methods, with reference to Embodiment 1. The concentration of active ingredients in the culture medium is used as the testing concentration to calculate the toxic regression equation (Y=bx+a) and the median inhibition concentration EC50, 95% confidence limit, and relative toxicity. Relative toxicity (compared to chlorothalonil) = EC50 of chlorothalonil / EC50 of 3-(3',4'-methylenedioxy phenyl)-piperidine acrylate, and relative toxicity (compared to procymidone) = EC50 of procymidone / EC50 of 3-(3',4'-methylenedioxy phenyl)-piperidine acrylate.

Valsa mali = assay: as above; type: cell-based; conditions: for EC50: median inhibition concentration
Experimental: as §1, §2, §3

Exserohilum turcicum = assay: as above; type: cell-based; conditions: for EC50: median inhibition concentration
Experimental: as §1, §2, §3

[1] = test system: damping-off (P. aphanidermatum, P.capsici); assay: In-vivo greenhouse control of damping-off of tomatoes; conditions: Tomato; sick soil; 0.80 mg/mL (active ingredients)
Experimental: (§4) 3.88 g of 3-(3',4'-methylenedioxy phenyl)-N-n-propyl acrylamide was weighed and dissolved in 25 g of absolute ethyl alcohol, then 6 g of emulsifier 0203B was added, and mixed uniformly with stirring to get 10% of 3-(3',4'-methylenedioxy phenyl)-N-n-propyl acrylamide EC.
(§5) 5.61 g of 3-(3',4'-methylenedioxy phenyl)-piperidine acrylate was weighed and dissolved in 25 g of absolute ethyl alcohol, then 6 g of emulsifier 0203B was added, and mixed uniformly with stirring to get 14% of 3-(3',4'-methylenedioxy phenyl)-piperidine acrylate EC.
(§6) Sick soil of damping-off (P. aphanidermatum, P.capsici) was collected from the fields of tomatoes, eggplants and peppers in a solar greenhouse, and mixed evenly in equal proportion. Tomatoes (Variety: Song Tian Fen Yang Yang, 100 grains), eggplants (Variety: Lanza No. 2 F1 long eggplant, 100 grains), pepper (Longjiao No. 2 F1, 100 grains) were seeded quantitatively with the sick soil in pots (diameter: 15 cm) in a greenhouse, additionally with sterile vermiculite as the control (each 100 grains for determining the germination rate). […] Mortality of seedlings was investigated after the seedlings had grown 2 true leaves, and the control effect of each treatment on damping-off was calculated. […]

Magnaporthe grisea = assay: microbe, parasite or virus in culture; type: cell-based; conditions: for EC50: median inhibition concentration
[2] = test system: damping-off (P. aphanidermatum, P.capsici); assay: In-vivo greenhouse control of damping-off of peppers; conditions: Pepper; sick soil; 0.80 mg/mL (active ingredients)
Experimental: as §4, §5, §6

Phytophthora infestans [3] = assay: microbe, parasite or virus in culture; type: cell-based; conditions: 1 mg/mL
Phytophthora infestans [4] = assay: microbe, parasite or virus in culture; type: cell-based; conditions: for EC50: median inhibition concentration
[5] = EC50 of chlorothalonil / EC50 of agent
[6] = EC50 of procymidone / EC50 of agent

Compound: O=C(/C=C/c1ccc2c(c1)OCO2)N1CCCCC1 [3-(3',4'-methylenedioxyphenyl)-piperidine acrylate]
- Control Effect (E. cichoracearum): 69.84%
- Relative Toxicity (Compared to Chlorothalonil) (Sclerotinia sclerotiorum; [5]): 0.28
- Relative Toxicity (Compared to Procymidone) (Sclerotinia sclerotiorum; [6]): 0.31
- EC50 (Sclerotinia sclerotiorum; median inhibition concentration): 227 µg/mL (≈ 875 µM)
- EC50 (Valsa mali; Cytospora mali, read-out: EC50): 90 µg/mL (≈ 347 µM)
- Relative Toxicity (Compared to Chlorothalonil) (Valsa mali; [5]): 4.68
- Relative Toxicity (Compared to Procymidone) (Valsa mali; [6]): 4.78
- EC50 (Valsa mali; listed as 66#): 89.4 µg/mL (≈ 345 µM)
- Relative Toxicity (Compared to Chlorothalonil) (Exserohilum turcicum; [5]): 3.21
- Relative Toxicity (Compared to Procymidone) (Exserohilum turcicum; [6]): 0.82
- EC50 (Exserohilum turcicum; listed as 66#): 128.1 µg/mL (≈ 494 µM)
- EC50 (Exserohilum turcicum; read-out: EC50): 130 µg/mL (≈ 501 µM)
- Control Effect [1]: 61.41%
- Relative Toxicity (Compared to Chlorothalonil) (Magnaporthe grisea; [5]): 2.45
- Relative Toxicity (Compared to Procymidone) (Magnaporthe grisea; [6]): 1.73
- EC50 (Magnaporthe grisea; Pyricularia oryzae): 180 µg/mL (≈ 694 µM)
- EC50 (Magnaporthe grisea; listed as 66#): 177.6 µg/mL (≈ 685 µM)
- Control Effect [2]: 67.71%
- Average Diameter of the Colony (Phytophthora infestans [3]): 0.00 cm
- Relative Toxicity (Compared to Chlorothalonil) (Phytophthora infestans [4]; [5]): 1.23
- Relative Toxicity (Compared to Procymidone) (Phytophthora infestans [4]; [6]): 8.36
- EC50 (Phytophthora infestans [4]): 90 µg/mL (≈ 347 µM)
- EC50 (Phytophthora infestans [4]; listed as 66#): 93 µg/mL (≈ 359 µM)

Compound: CCCNC(=O)/C=C/c1ccc2c(c1)OCO2 [3-(3',4'-methylenedioxyphenyl)-N-n-propyl acrylamide]
- Control Effect (E. cichoracearum): 88.38%
- Average Diameter of the Colony (Phytophthora infestans [3]): 0.00 cm
